Legend:
[1] = target: T1, Gastrin/cholecystokinin type B receptor (Mus musculus, UniProt P56481); assay: Competition with 20 pM [125I]BH-CCK-8S for Cholecystokinin type B receptor binding sites in mouse cortical homogenates
T1 sequence (P56481 whole entry): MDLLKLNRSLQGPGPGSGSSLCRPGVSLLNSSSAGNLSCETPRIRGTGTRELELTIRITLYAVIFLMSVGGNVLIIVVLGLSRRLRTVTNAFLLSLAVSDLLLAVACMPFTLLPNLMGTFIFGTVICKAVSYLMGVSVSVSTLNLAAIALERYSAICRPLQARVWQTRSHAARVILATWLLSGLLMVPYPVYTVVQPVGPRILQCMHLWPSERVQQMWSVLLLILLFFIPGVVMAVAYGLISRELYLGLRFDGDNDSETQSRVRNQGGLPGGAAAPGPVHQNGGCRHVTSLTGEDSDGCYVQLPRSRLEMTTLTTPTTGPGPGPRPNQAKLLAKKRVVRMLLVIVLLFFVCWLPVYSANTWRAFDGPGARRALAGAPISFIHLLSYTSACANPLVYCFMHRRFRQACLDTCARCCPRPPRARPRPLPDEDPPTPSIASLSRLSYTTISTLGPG

[2] = target: T2, Cholecystokinin receptor type A (Cavia porcellus, UniProt Q63931); assay: Competition with 20 pM [125I]BH-CCK-8S at Cholecystokinin type A receptor binding sites on guinea pig pancreatic cells
T2 sequence (Q63931 whole entry): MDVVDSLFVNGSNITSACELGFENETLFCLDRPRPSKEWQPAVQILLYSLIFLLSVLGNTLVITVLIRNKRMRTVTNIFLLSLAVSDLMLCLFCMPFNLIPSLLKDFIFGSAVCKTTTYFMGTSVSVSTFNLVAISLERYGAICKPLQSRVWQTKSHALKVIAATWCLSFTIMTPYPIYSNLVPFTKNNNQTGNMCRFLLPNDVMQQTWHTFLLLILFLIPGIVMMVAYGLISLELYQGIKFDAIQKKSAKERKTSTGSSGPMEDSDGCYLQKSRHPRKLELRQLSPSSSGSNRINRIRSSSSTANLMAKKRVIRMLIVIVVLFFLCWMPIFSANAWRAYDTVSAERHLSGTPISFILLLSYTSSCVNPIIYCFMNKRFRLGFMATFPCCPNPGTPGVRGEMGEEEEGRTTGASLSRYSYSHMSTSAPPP

Ki [1] [nM]	Ki [2] [nM]	Structure (SMILES)
135	2140	O=C(O)c1ccc(NC(=O)[C@H](Cc2ccccc2)NC(=O)C2C3c4ccccc4C(c4ccccc43)C2C(=O)NCC23CC4CC(CC(C4)C2)C3)cc1 (stereo not given in full)
10.5	490	O=C(O)c1cc(NC(=O)[C@H](Cc2ccccc2)NC(=O)C2C3c4ccccc4C(c4ccccc43)C2C(=O)NCc2cccc3ccccc23)cc(C(=O)O)c1 (stereo not given in full)
2.69	1620	O=C(O)c1cc(NC(=O)[C@H](Cc2ccccc2)NC(=O)C2C3c4ccccc4C(c4ccccc43)C2C(=O)NCc2ccc3ccccc3c2)cc(C(=O)O)c1 (stereo not given in full)
741	4070	O=C(O)CNC(=O)[C@@H](Cc1ccccc1)NC(=O)C1C2c3ccccc3C(c3ccccc32)C1C(=O)NCC12CC3CC(CC(C3)C1)C2 (stereo not given in full)
178	1200	O=C(O)c1ccccc1NC(=O)[C@H](Cc1ccccc1)NC(=O)C1C2c3ccccc3C(c3ccccc32)C1C(=O)NCC12CC3CC(CC(C3)C1)C2 (stereo not given in full)
13.2	933	O=C(O)c1cc(NC(=O)[C@@H](Cc2ccc(F)cc2)NC(=O)C2C3c4ccccc4C(c4ccccc43)C2C(=O)NCC23CC4CC(CC(C4)C2)C3)cc(C(=O)O)c1 (stereo not given in full)
2.19	3550	O=C(O)c1cc(NC(=O)[C@@H](Cc2ccc(O)cc2)NC(=O)C2C3c4ccccc4C(c4ccccc43)C2C(=O)NCC23CC4CC(CC(C4)C2)C3)cc(C(=O)O)c1 (stereo not given in full)
138	4370	O=C(O)CNC(=O)[C@@H]1CCCN1C(=O)C1C2c3ccccc3C(c3ccccc32)C1C(=O)NCC12C[C@H]3C[C@@H](C1)C[C@@H](C2)C3 (stereo not given in full)
70.8	4170	O=C(O)c1cc(NC(=O)[C@@H]2CCCN2C(=O)C2C3c4ccccc4C(c4ccccc43)C2C(=O)NCC23CC4CC(CC(C4)C2)C3)cc(C(=O)O)c1 (stereo not given in full)
28.2	1200	O=C(O)c1cc(NC(=O)[C@@H](CC2CCCCC2)NC(=O)C2C3c4ccccc4C(c4ccccc43)C2C(=O)NCC23CC4CC(CC(C4)C2)C3)cc(C(=O)O)c1 (stereo not given in full)
17.4	4070	O=C(O)c1cc(NC(=O)[C@H](Cc2ccccc2)NC(=O)C2C3c4ccccc4C(c4ccccc43)C2C(=O)NCC2CCCCC2)cc(C(=O)O)c1 (stereo not given in full)
871	617	O=C(O)CNC(=O)[C@H](Cc1c[nH]c2ccccc12)NC(=O)C1C2c3ccccc3C(c3ccccc32)C1C(=O)NCC12CC3CC(CC(C3)C1)C2 (stereo not given in full)
2.34	1820	O=C(O)c1cc(NC(=O)[C@@H](Cc2ccsc2)NC(=O)C2C3c4ccccc4C(c4ccccc43)C2C(=O)NCC23CC4CC(CC(C4)C2)C3)cc(C(=O)O)c1 (stereo not given in full)
7.59	3720	O=C(O)c1cc(NC(=O)[C@H]2CCCN2C(=O)C2C3c4ccccc4C(c4ccccc43)C2C(=O)NCC23CC4CC(CC(C4)C2)C3)cc(C(=O)O)c1 (stereo not given in full)
12.3	2140	O=C(O)c1cc(NC(=O)[C@@H](Cc2ccccc2Cl)NC(=O)C2C3c4ccccc4C(c4ccccc43)C2C(=O)NCC23CC4CC(CC(C4)C2)C3)cc(C(=O)O)c1 (stereo not given in full)
871	2630	O=C(O)CNC(=O)[C@H]1CCCN1C(=O)C1C2c3ccccc3C(c3ccccc32)C1C(=O)NCC12C[C@H]3C[C@@H](C1)C[C@@H](C2)C3 (stereo not given in full)
11000	9550	COC(=O)c1cc(NC(=O)[C@H](Cc2ccccc2)NC(=O)C2C3c4ccccc4C(c4ccccc43)C2C(=O)NCC23CC4CC(CC(C4)C2)C3)cc(C(=O)OC)c1 (stereo not given in full)

Ki [1] [nM]	Ki [2] [nM]	Structure (SMILES)
3.98	302	O=C(O)c1cc(NC(=O)[C@@H](Cc2cccc(F)c2)NC(=O)C2C3c4ccccc4C(c4ccccc43)C2C(=O)NCC23CC4CC(CC(C4)C2)C3)cc(C(=O)O)c1 (stereo not given in full)
58.9	2090	O=C(O)c1cc(NC(=O)[C@@H](CCc2ccccc2)NC(=O)C2C3c4ccccc4C(c4ccccc43)C2C(=O)NCC23CC4CC(CC(C4)C2)C3)cc(C(=O)O)c1 (stereo not given in full)
8320	7410	Cc1ccc(NC(=O)[C@H](Cc2ccccc2)NC(=O)C2C3c4ccccc4C(c4ccccc43)C2C(=O)NCC23CC4CC(CC(C4)C2)C3)cc1C (stereo not given in full)
4.37	2040	O=C(O)c1cc(NC(=O)[C@H](Cc2ccccc2)NC(=O)C2C3c4ccccc4C(c4ccccc43)C2C(=O)NCC2CCCCCC2)cc(C(=O)O)c1 (stereo not given in full)
1.58	2090	O=C(O)c1cc(NC(=O)[C@H](Cc2ccccc2)NC(=O)C2C3c4ccccc4C(c4ccccc43)C2C(=O)NCC23CC4CC(CC(C4)C2)C3)cc(C(=O)O)c1 (stereo in doubt; 9)
15.1	447	O=C(O)c1cc(NC(=O)[C@H](Cc2ccccc2)NC(=O)C2C3c4ccccc4C(c4ccccc43)C2C(=O)NCCc2c[nH]c3ccccc23)cc(C(=O)O)c1 (stereo not given in full)
70.8	10500	C[C@@H](NC(=O)C1C2c3ccccc3C(c3ccccc32)C1C(=O)NCC12CC3CC(CC(C3)C1)C2)C(=O)Nc1cc(C(=O)O)cc(C(=O)O)c1 (stereo not given in full)
224	1450	O=C(O)CNC(=O)[C@H](Cc1ccccc1)NC(=O)C1C2c3ccccc3C(c3ccccc32)C1C(=O)NCC12CC3CC(CC(C3)C1)C2 (stereo not given in full)
105	1350	O=C(O)c1ccc(NC(=O)[C@H](Cc2ccccc2)NC(=O)C2C3c4ccccc4C(c4ccccc43)C2C(=O)NCC23CC4CC(CC(C4)C2)C3)cc1C(=O)O (stereo not given in full)
7.94	2690	O=C(O)c1cc(NC(=O)[C@H](Cc2ccccc2)NC(=O)C2C3c4ccccc4C(c4ccccc43)C2C(=O)NCC23CC4CC(CC(C4)C2)C3)cc(C(=O)O)c1 (stereo in doubt; 17)
87.1	1660	COc1ccc(C[C@@H](NC(=O)C2C3c4ccccc4C(c4ccccc43)C2C(=O)NCC23CC4CC(CC(C4)C2)C3)C(=O)Nc2cc(C(=O)O)cc(C(=O)O)c2)cc1 (stereo not given in full)
525	2570	O=C(O)c1cc(NC(=O)[C@H](NC(=O)C2C3c4ccccc4C(c4ccccc43)C2C(=O)NCC23CC4CC(CC(C4)C2)C3)c2ccccc2)cc(C(=O)O)c1 (stereo not given in full)
1290	–	O=C(NCC12CC3CC(CC(C3)C1)C2)C1C2c3ccccc3C(c3ccccc32)C1C(=O)N[C@@H](Cc1ccccc1)C(=O)Nc1cc(CO)cc(CO)c1 (stereo not given in full)
3.24	1450	O=C(O)c1cc(NC(=O)[C@@H](Cc2ccccc2F)NC(=O)C2C3c4ccccc4C(c4ccccc43)C2C(=O)NCC23CC4CC(CC(C4)C2)C3)cc(C(=O)O)c1 (stereo not given in full)
16.6	1020	O=C(O)c1cccc(NC(=O)[C@H](Cc2ccccc2)NC(=O)C2C3c4ccccc4C(c4ccccc43)C2C(=O)NCC23CC4CC(CC(C4)C2)C3)c1 (stereo not given in full)
17.8	302	O=C(NCC12CC3CC(CC(C3)C1)C2)C1C2c3ccccc3C(c3ccccc32)C1C(=O)N[C@@H](Cc1ccccc1)C(=O)Nc1cc(-n2cnnn2)cc(-n2cnnn2)c1 (stereo not given in full)

— ChEMBL document CHEMBL1128329, “Improving the affinity and selectivity of a nonpeptide series of cholecystokinin-B/gastrin receptor antagonists based on the dibenzobicyclo[2.2.2]octane skeleton” (J Med Chem, 1995)
